Source: ChEMBL document CHEMBL1132901, “Synthesis and structure-activity relationships of quaternary ammonium cephalosporins with 3-pyrazolylpyridinium derivatives” (2000)
Converted amounts (≈) assume the structure as drawn.

What follows are compounds tested on Escherichia coli (assay: In vitro antimicrobial activity against Escherichia coli TEM). Conditions: not given.
Format: functional

Row | SMILES | MIC
1 | CO/N=C(/C(=O)N[C@@H]1C(=O)N2C(C(=O)[O-])=C(C[n+]3cccc(-c4cc(CO)nn4CCO)c3)CS[C@H]12)c1csc(N)n1 | 0.781 µg/mL (≈ 1.27 µM)
2 | CO/N=C(/C(=O)N[C@@H]1C(=O)N2C(C(=O)[O-])=C(C[n+]3cccc(-c4cc(CO)[nH]n4)c3)CS[C@H]12)c1csc(N)n1 | 0.195 µg/mL (≈ 0.342 µM)

What follows are compounds tested on Pseudomonas aeruginosa (assay: In vitro antimicrobial activity against Pseudomonas aeruginosa 1592 E). Conditions: not given.
Format: functional

Row | SMILES | MIC
3 | CO/N=C(/C(=O)N[C@@H]1C(=O)N2C(C(=O)[O-])=C(C[n+]3cccc(-c4cc(CO)nn4CCO)c3)CS[C@H]12)c1csc(N)n1 | 12.5 µg/mL (≈ 20.3 µM)
4 | CO/N=C(/C(=O)N[C@@H]1C(=O)N2C(C(=O)[O-])=C(C[n+]3cccc(-c4cc(CO)[nH]n4)c3)CS[C@H]12)c1csc(N)n1 | 3.12 µg/mL (≈ 5.48 µM)

Each compound was assayed on Enterobacter cloacae (assay: In vitro antimicrobial activity against Enterobacter cloacae P99). Conditions: not given.
Format: functional

Row | SMILES | MIC
5 | CO/N=C(/C(=O)N[C@@H]1C(=O)N2C(C(=O)[O-])=C(C[n+]3cccc(-c4cc(CO)nn4CCO)c3)CS[C@H]12)c1csc(N)n1 | > 50 µg/mL
6 | CO/N=C(/C(=O)N[C@@H]1C(=O)N2C(C(=O)[O-])=C(C[n+]3cccc(-c4cc(CO)[nH]n4)c3)CS[C@H]12)c1csc(N)n1 | > 12.5 µg/mL

These compounds were tested on Staphylococcus aureus (assay: In vitro antimicrobial activity against Methicillin resistant Staphylococcus aureus (MRSA)). Conditions: not given.
Format: functional

Row | SMILES | MIC
7 | CO/N=C(/C(=O)N[C@@H]1C(=O)N2C(C(=O)[O-])=C(C[n+]3cccc(-c4cc(CO)nn4CCO)c3)CS[C@H]12)c1csc(N)n1 | 25 µg/mL (≈ 40.7 µM)

The compounds below were run on Pseudomonas aeruginosa (assay: In vitro antimicrobial activity against Pseudomonas aeruginosa 9027). Conditions: not given.
Format: functional

Row | SMILES | MIC
8 | CO/N=C(/C(=O)N[C@@H]1C(=O)N2C(C(=O)[O-])=C(C[n+]3cccc(-c4cc(CO)nn4CCO)c3)CS[C@H]12)c1csc(N)n1 | 25 µg/mL (≈ 40.7 µM)
9 | CO/N=C(/C(=O)N[C@@H]1C(=O)N2C(C(=O)[O-])=C(C[n+]3cccc(-c4cc(CO)[nH]n4)c3)CS[C@H]12)c1csc(N)n1 | 6.25 µg/mL (≈ 11 µM)

What follows are compounds tested on Pseudomonas aeruginosa (assay: In vitro antimicrobial activity against Pseudomonas aeruginosa 1771). Conditions: not given.
Format: functional

Row | SMILES | MIC
10 | CO/N=C(/C(=O)N[C@@H]1C(=O)N2C(C(=O)[O-])=C(C[n+]3cccc(-c4cc(CO)nn4CCO)c3)CS[C@H]12)c1csc(N)n1 | 6.25 µg/mL (≈ 10.2 µM)
11 | CO/N=C(/C(=O)N[C@@H]1C(=O)N2C(C(=O)[O-])=C(C[n+]3cccc(-c4cc(CO)[nH]n4)c3)CS[C@H]12)c1csc(N)n1 | 1.56 µg/mL (≈ 2.74 µM)

The compounds below were run on Staphylococcus aureus (assay: In vitro antimicrobial activity against Staphylococcus aureus 503). Conditions: not given.
Format: functional

Row | SMILES | MIC
12 | CO/N=C(/C(=O)N[C@@H]1C(=O)N2C(C(=O)[O-])=C(C[n+]3cccc(-c4cc(CO)nn4CCO)c3)CS[C@H]12)c1csc(N)n1 | 1.56 µg/mL (≈ 2.54 µM)
13 | CO/N=C(/C(=O)N[C@@H]1C(=O)N2C(C(=O)[O-])=C(C[n+]3cccc(-c4cc(CO)[nH]n4)c3)CS[C@H]12)c1csc(N)n1 | 0.391 µg/mL (≈ 0.685 µM)

These compounds were tested on Pseudomonas aeruginosa (assay: In vitro antimicrobial activity against Pseudomonas aeruginosa 1771 M). Conditions: not given.
Format: functional

Row | SMILES | MIC
14 | CO/N=C(/C(=O)N[C@@H]1C(=O)N2C(C(=O)[O-])=C(C[n+]3cccc(-c4cc(CO)nn4CCO)c3)CS[C@H]12)c1csc(N)n1 | 0.781 µg/mL (≈ 1.27 µM)
15 | CO/N=C(/C(=O)N[C@@H]1C(=O)N2C(C(=O)[O-])=C(C[n+]3cccc(-c4cc(CO)[nH]n4)c3)CS[C@H]12)c1csc(N)n1 | 0.391 µg/mL (≈ 0.685 µM)

The compounds below were run on Streptococcus pyogenes (assay: In vitro antimicrobial activity against Streptococcus pyogenes 77A). Conditions: not given.
Format: functional

Row | SMILES | MIC
16 | CO/N=C(/C(=O)N[C@@H]1C(=O)N2C(C(=O)[O-])=C(C[n+]3cccc(-c4cc(CO)nn4CCO)c3)CS[C@H]12)c1csc(N)n1 | 0.049 µg/mL (≈ 0.0797 µM)
17 | CO/N=C(/C(=O)N[C@@H]1C(=O)N2C(C(=O)[O-])=C(C[n+]3cccc(-c4cc(CO)[nH]n4)c3)CS[C@H]12)c1csc(N)n1 | 0.013 µg/mL (≈ 0.0228 µM)

These compounds were tested on Staphylococcus aureus (assay: In vitro antimicrobial activity against Staphylococcus aureus 285). Conditions: not given.
Format: functional

Row | SMILES | MIC
18 | CO/N=C(/C(=O)N[C@@H]1C(=O)N2C(C(=O)[O-])=C(C[n+]3cccc(-c4cc(CO)nn4CCO)c3)CS[C@H]12)c1csc(N)n1 | 6.25 µg/mL (≈ 10.2 µM)
19 | CO/N=C(/C(=O)N[C@@H]1C(=O)N2C(C(=O)[O-])=C(C[n+]3cccc(-c4cc(CO)[nH]n4)c3)CS[C@H]12)c1csc(N)n1 | 1.56 µg/mL (≈ 2.74 µM)

Each compound was assayed on Streptococcus pyogenes (assay: In vitro antimicrobial activity against Streptococcus pyogenes A 308). Conditions: not given.
Format: functional

Row | SMILES | MIC
20 | CO/N=C(/C(=O)N[C@@H]1C(=O)N2C(C(=O)[O-])=C(C[n+]3cccc(-c4cc(CO)nn4CCO)c3)CS[C@H]12)c1csc(N)n1 | 0.049 µg/mL (≈ 0.0797 µM)
21 | CO/N=C(/C(=O)N[C@@H]1C(=O)N2C(C(=O)[O-])=C(C[n+]3cccc(-c4cc(CO)[nH]n4)c3)CS[C@H]12)c1csc(N)n1 | 0.025 µg/mL (≈ 0.0438 µM)

The compounds below were run on Escherichia coli (assay: In vitro antimicrobial activity against Escherichia coli DC 0). Conditions: not given.
Format: functional

Row | SMILES | MIC
22 | CO/N=C(/C(=O)N[C@@H]1C(=O)N2C(C(=O)[O-])=C(C[n+]3cccc(-c4cc(CO)nn4CCO)c3)CS[C@H]12)c1csc(N)n1 | 0.195 µg/mL (≈ 0.317 µM)
23 | CO/N=C(/C(=O)N[C@@H]1C(=O)N2C(C(=O)[O-])=C(C[n+]3cccc(-c4cc(CO)[nH]n4)c3)CS[C@H]12)c1csc(N)n1 | 0.049 µg/mL (≈ 0.0859 µM)

The compounds below were run on Escherichia coli (assay: In vitro antimicrobial activity against Escherichia coli 1507E). Conditions: not given.
Format: functional

Row | SMILES | MIC
24 | CO/N=C(/C(=O)N[C@@H]1C(=O)N2C(C(=O)[O-])=C(C[n+]3cccc(-c4cc(CO)nn4CCO)c3)CS[C@H]12)c1csc(N)n1 | 0.391 µg/mL (≈ 0.636 µM)
25 | CO/N=C(/C(=O)N[C@@H]1C(=O)N2C(C(=O)[O-])=C(C[n+]3cccc(-c4cc(CO)[nH]n4)c3)CS[C@H]12)c1csc(N)n1 | 0.098 µg/mL (≈ 0.172 µM)

These compounds were tested on Escherichia coli (assay: In vitro antimicrobial activity against Escherichia coli DC 2). Conditions: not given.
Format: functional

Row | SMILES | MIC
26 | CO/N=C(/C(=O)N[C@@H]1C(=O)N2C(C(=O)[O-])=C(C[n+]3cccc(-c4cc(CO)nn4CCO)c3)CS[C@H]12)c1csc(N)n1 | 0.098 µg/mL (≈ 0.159 µM)
27 | CO/N=C(/C(=O)N[C@@H]1C(=O)N2C(C(=O)[O-])=C(C[n+]3cccc(-c4cc(CO)[nH]n4)c3)CS[C@H]12)c1csc(N)n1 | 0.025 µg/mL (≈ 0.0438 µM)

What follows are compounds tested on Escherichia coli (assay: In vitro antimicrobial activity against Escherichia coli 055). Conditions: not given.
Format: functional

Row | SMILES | MIC
28 | CO/N=C(/C(=O)N[C@@H]1C(=O)N2C(C(=O)[O-])=C(C[n+]3cccc(-c4cc(CO)nn4CCO)c3)CS[C@H]12)c1csc(N)n1 | 0.098 µg/mL (≈ 0.159 µM)
29 | CO/N=C(/C(=O)N[C@@H]1C(=O)N2C(C(=O)[O-])=C(C[n+]3cccc(-c4cc(CO)[nH]n4)c3)CS[C@H]12)c1csc(N)n1 | 0.049 µg/mL (≈ 0.0859 µM)

The compounds below were run on Klebsiella aerogenes (assay: In vitro antimicrobial activity against Klebsiella aerogenes 1522 E). Conditions: not given.
Format: functional

Row | SMILES | MIC
30 | CO/N=C(/C(=O)N[C@@H]1C(=O)N2C(C(=O)[O-])=C(C[n+]3cccc(-c4cc(CO)nn4CCO)c3)CS[C@H]12)c1csc(N)n1 | 0.195 µg/mL (≈ 0.317 µM)
31 | CO/N=C(/C(=O)N[C@@H]1C(=O)N2C(C(=O)[O-])=C(C[n+]3cccc(-c4cc(CO)[nH]n4)c3)CS[C@H]12)c1csc(N)n1 | 0.049 µg/mL (≈ 0.0859 µM)

The compounds below were run on Streptococcus pyogenes (assay: In vitro antimicrobial activity against Streptococcus pyogenes SG 511). Conditions: not given.
Format: functional

Row | SMILES | MIC
32 | CO/N=C(/C(=O)N[C@@H]1C(=O)N2C(C(=O)[O-])=C(C[n+]3cccc(-c4cc(CO)nn4CCO)c3)CS[C@H]12)c1csc(N)n1 | 6.25 µg/mL (≈ 10.2 µM)
33 | CO/N=C(/C(=O)N[C@@H]1C(=O)N2C(C(=O)[O-])=C(C[n+]3cccc(-c4cc(CO)[nH]n4)c3)CS[C@H]12)c1csc(N)n1 | 1.56 µg/mL (≈ 2.74 µM)

These compounds were tested on Salmonella typhimurium (assay: In vitro antimicrobial activity against Salmonella Typhimurium). Conditions: Salmonella enterica.
Format: functional, Salmonella enterica subsp. enterica serovar Typhimurium

Row | SMILES | MIC
34 | CO/N=C(/C(=O)N[C@@H]1C(=O)N2C(C(=O)[O-])=C(C[n+]3cccc(-c4cc(CO)nn4CCO)c3)CS[C@H]12)c1csc(N)n1 | 0.391 µg/mL (≈ 0.636 µM)
35 | CO/N=C(/C(=O)N[C@@H]1C(=O)N2C(C(=O)[O-])=C(C[n+]3cccc(-c4cc(CO)[nH]n4)c3)CS[C@H]12)c1csc(N)n1 | 0.098 µg/mL (≈ 0.172 µM)

What follows are compounds tested on Enterococcus faecium (assay: In vitro antimicrobial activity against Streptococcus faecium MD 8b). Conditions: not given.
Format: functional

Row | SMILES | MIC
36 | CO/N=C(/C(=O)N[C@@H]1C(=O)N2C(C(=O)[O-])=C(C[n+]3cccc(-c4cc(CO)nn4CCO)c3)CS[C@H]12)c1csc(N)n1 | 12.5 µg/mL (≈ 20.3 µM)
37 | CO/N=C(/C(=O)N[C@@H]1C(=O)N2C(C(=O)[O-])=C(C[n+]3cccc(-c4cc(CO)[nH]n4)c3)CS[C@H]12)c1csc(N)n1 | 3.12 µg/mL (≈ 5.48 µM)

Each compound was assayed on Klebsiella oxytoca (assay: In vitro antimicrobial activity against Klebsiella oxytoca 1082). Conditions: not given.
Format: functional

Row | SMILES | MIC
38 | CO/N=C(/C(=O)N[C@@H]1C(=O)N2C(C(=O)[O-])=C(C[n+]3cccc(-c4cc(CO)nn4CCO)c3)CS[C@H]12)c1csc(N)n1 | 12.5 µg/mL (≈ 20.3 µM)
39 | CO/N=C(/C(=O)N[C@@H]1C(=O)N2C(C(=O)[O-])=C(C[n+]3cccc(-c4cc(CO)[nH]n4)c3)CS[C@H]12)c1csc(N)n1 | 3.12 µg/mL (≈ 5.48 µM)

These compounds were tested on Enterobacter cloacae (assay: In vitro antimicrobial activity against Enterobacter 1321 E). Conditions: not given.
Format: functional

Row | SMILES | MIC
40 | CO/N=C(/C(=O)N[C@@H]1C(=O)N2C(C(=O)[O-])=C(C[n+]3cccc(-c4cc(CO)nn4CCO)c3)CS[C@H]12)c1csc(N)n1 | 0.098 µg/mL (≈ 0.159 µM)
41 | CO/N=C(/C(=O)N[C@@H]1C(=O)N2C(C(=O)[O-])=C(C[n+]3cccc(-c4cc(CO)[nH]n4)c3)CS[C@H]12)c1csc(N)n1 | 0.049 µg/mL (≈ 0.0859 µM)
